From patent US20120237937A1, “METHODS TO DETECT CANCER IN ANIMALS” (UNIVERSITY OF LOUISVILLE RESEARCH FOUNDATION, INC., priority 2009, published 2012)
One block for each molecule: values may come before it.

Experiments:
[1] = Time course analysis of 13C-metabolites in plasma by 1H NMR after [U-13C]-Glc infusion; format: in vivo, human; details: 3 hrs after [U-13C]-glucose infusion, lung cancer patients
Method: The extraction was performed twice for quantitative recovery.
See Fan et al. (2008) Prog. NMR Spectrosc. 52, 69-117; Fan (1996) Prog. NMR Spectrosc 28, 161-219.
In order to determine the optimal time to sample tissue after infusing [U-^13C]-Glc into lung cancer patients, we used ^1H NMR to analyze the profiles of ^13C-labeled products in plasma samples at several time points. Other than the administered tracer itself ([U-^13C]-Glc), the major ^13C-labeled metabolite in plasma was lactate. Plasma samples were collected 0, 3, and 12 hr after [U-^13C]-Glc infusion, as described in the Patient Treatment and Sample Collection section above. Unlabeled glucose and lactate concentrations were quantified by 1-D ^1H NMR using DSS as the calibration standard. Their % ^13C enrichment was determined from the respective ^13C satellite peaks in 1-D ^1H NMR spectra. Panels A-D illustrate the time course changes in glucose and lactate concentrations as well as their % ^13C enrichment. […] The chemical shifts of lactate and Ala reflected the acidic pH of the TCA extract.

[2] = Time course of plasma 13C-glucose and 13C-lactate in SCID mice by NMR; format: in vivo, SCID mouse
Method: (§1) A 20% solution of glucose in normal saline was sterile-filtered. 100 μL of this solution, or a 1:10 dilution (2%) were injected into the tail vein of a restrained mouse without anesthesia.
Approximately 50 μL samples of blood were taken intraorbitally at timed intervals, chilled and separated into plasma and whole blood by centrifugation at 4° C. at 3,000 g for 5 minutes. Plasma was flash frozen in liquid N2 for storage prior to workup.
Twenty to thirty μl of plasma was made to 10% trichloroacetic acid (TCA) and centrifuged at 4° C., at ≧22,000 g for 20 minutes to remove denatured proteins. The polar supernatant was lyophilized to remove TCA before preparation for NMR and GC-MS analysis.
(§2) NMR spectra were recorded at 14.1 T on a Varian Inova spectrometer equipped with a 5 mm inverse triple resonance cold probe, at 20° C. 1D NMR spectra were recorded with an acquisition time of 2 s and a recycle time of 5 sec. Concentrations of metabolites and ^13C incorporation were determined by peak integration of the ^1H NMR spectra referenced to the DSS methyl groups, with correction for differential relaxation, as previously described (See, Lane et al. (2008) Biophysical Tools for Biologists. 84: 541-588; Fan et al. (2008) Progress in NMR Spectroscopy 52: 69-117; Lane et al. (2007) Metabolomics 3: 79-86.). ^1H Spectra were typically processed with zero filling to 131 k points, and apodized with an unshifted Gaussian and a 0.5 Hz line broadening exponential.
The two SCID mice were injected via the tail vein with […] [U-^13C]-glucose. Blood was sequentially taken intraorbitally, and analyzed by NMR as described in the NMR Spectroscopy section. To assess the optimal time for metabolizing the ^13C6-glucose in mice, plasma samples were taken at 15-minute intervals and processed for NMR analysis. […] The initial glucose enrichment ranged from 30 to >50% depending on the size of the mouse, which means that the plasma glucose concentration was roughly doubled immediately after the bolus [U-^13C]-glucose injection. The % enrichment for glucose decreased rapidly and asymptotically within one hour, presumably via the normal homeostatic mechanism. […] The initial rate of ^13C lactate production was approximately equal to the initial rate of glucose consumption, but then decayed after about 20 minutes.

[3] = Isotopic enrichment in SCID mouse tissue lactate and glucose by 1D 1H NMR; format: in vivo; details: Lac at C3, Glc at C1α
Method: as §1
Mice were sacrificed at different times post glucose injection, and the following organs were dissected sequentially: lung, heart, liver, kidney, brain, spleen, and thigh muscle. Dissected tissue was flash frozen in liquid N2 within 1 minute of killing the animal.
Frozen tissues were ground in liquid N2 to <10 μm particles in a 6750 Freezer/Mill (Retsch, Inc., Newtown, Pa.) and extracted for soluble and lipidic metabolites as follows. Up to 20 mg of frozen tissue powder in 15 ml polypropylene conical centrifuge tube (Sarstedt, Newton, N.C.) containing 3 mm diameter glass beads was vigorously mixed with 2 ml of cold acetonitrile (mass spectrometry grade, stored at −20° C.) to denature proteins, followed by addition of 1.5 ml nanopure water, and 1 ml HPLC-grade chloroform (Fisher Scientific). The mixture was shaken vigorously until achieving a milky consistency followed by centrifugation at 3,000 g for 20 minutes at 4° C. to separate the polar (top), lipidic (bottom), and tissue debris layers (interface). The polar and lipidic layers were recovered sequentially and the remaining cell debris was extracted again with 0.5 ml chloroform:methanol:butylated hydroxytoluene (BHT) (2:1:1 mM) which was pooled with the lipidic fraction. All three fractions were vacuum-dried in a speedvac device (Vacufuge, Eppendorf, New York, N.Y.) and/or by lyophylization. The dry weight of tissue debris was obtained for normalization of metabolite content. The polar extracts were redissolved in 100% D2O containing 30 nmol perdeuterated DSS (2,2-dimethyl-2-silapentane-5-sulfonate, Cambridge Isotope Laboratories, Andover, Mass.) as internal chemical shift and concentration reference for NMR measurement.
as §2
The same extracts from FIG. 9 were analyzed by NMR to complement the GC-MS analysis. The ^13C enrichment into glucose/glucose-6-phosphate and lactate was determined by 1D ^1H NMR. The enrichments at 15 and 30 minutes post infusion were substantial in all tissues, and peak lactate enrichments differed according to the metabolic activity or glucose uptake rates of the different tissues (Table 7).
Lac measured at C3, G1c measured at C1α by NMR

[4] = GC-MS quantification of total and 13C-enriched metabolites in paired normal and cancerous lung tissues
[5] = system: lung tumor; assay: Response of lung lesions of patient 25b to Erlotinib; format: in vivo, human; details: Stage I
Description: The horizontal dotted line represents a ratio of 1. […] See also, Fan et al. (2009) Exp. Molec. Pathol. 87, 83-86.

[6] = NMR 13C-isotopomer profiling of TCA extracts of paired non-cancerous and cancerous lung tissues; details: in vivo
Method: Lung cancer patients were recruited based on the criteria of surgical eligibility and no history of diabetes. Each patient was consented in accordance with the U.S. HIPAA regulations. The following patient protocol was approved by the Internal Review Board at the University of Louisville. Ten grams uniformly ^13C labeled glucose ([U-^13C]-Glc or ^13C6-Glc or ^13C6-Glucose) in sterile saline solution were infused i.v. over a 30 min time period into each patient in the pre-op room approximately 3 or 12 hr prior to resection. Whole blood samples were collected into a vacutainer containing the anticoagulant K3EDTA or K3-EDTA before and after [U-^13C]-Glc infusion as well as after the surgery. Additional blood samples were collected 3 and 12 hr after the [U-^13C]-Glc infusion for the 12 hr treatment cases. […] The blood samples were placed on ice immediately after collection and centrifuged at 4° C. at 3,500×g for 15 min to recover the plasma fraction. All blood samples were aliquoted and flash-frozen in liquid N2 within 30 min of collection. Potassium EDTA was used as an anti-coagulant to minimize metabolic artifacts associated with anti-coagulation; it also served to remove the influence of interfering cations such as paramagnetic Fe^3+ and Cu^2+ for NMR analysis.
All timings from first incision to cutting arteries and veins to the lung were recorded so that the period of ischemia could be determined immediately after tissue resection, excess blood was blotted from the tissue, and small pieces of non-cancerous and tumor tissue were cut by the surgeon and freeze-clamped in liquid N2 within 5 minutes of removal from the chest cavity. The freezing process arrested metabolic changes almost instantaneously. […] Non-cancerous tissue was removed at least 2 cm from the tumor margin and certified to be tumor-free by trained pathologists. Subsequent pathological evaluation also confirmed tumor status and provided the tumor stage. All samples were stored at −80° C. until further processing for analysis.
Frozen tissue samples were pulverized into <10 μm particles in liquid N2 using a Spex freezer mill (Spex CertiPrep, Inc., Metuchen, N.J.) to maximize efficiency for subsequent extraction while maintaining biochemical integrity. An aliquot of the frozen powder was lyophilized before extraction for metabolites.
Water-soluble or polar metabolites were extracted from lyophilized tissue powders (4-48 mg) in ice-cold 10% trichloroacetic acid (TCA) (v/w minimum 40/1) while leaving proteins, nucleic acids, and polysaccharides behind, as described previously (Kim et al. Antioxidants & Redox Signaling 2001, 3:361-373). The extraction was performed twice for quantitative recovery. An aliquot (150 μl) of plasma samples were made to final 10% TCA concentration to precipitate proteins and recover metabolites in the supernatant. TCA was then removed from tissue or plasma extracts by lyophilization. The dry pellet was dissolved in nanopure water and two small aliquots were lyophilized for silylation and GC-MS analysis while the remaining bulk was passed through a Chelex 100 resin column (Bio-Rad Laboratories, Inc., Hercules, Calif.) to neutralize and remove interfering multivalent cations for NMR analysis.
The ^1H reference standard, DSS (2,2-Dimethyl-2-silapentane-5-sulfonate sodium salt) was added (30 or 50 nmoles) to the TCA extracts of tissue or plasma samples, respectively. […]

SMILES: CC(O)C(=O)O (stereo not shown) [lactate]
- % 13C enrichment in plasma [1]: 5-22%
- peak % 13C enrichment in plasma ([2]; SCID mice, after [U-13C]-glucose bolus): 8-12%
- time of peak 13C enrichment in plasma ([2]; SCID mice, post injection): 15 to 20 min
- % 13C isotopic enrichment in tissue ([3]; Heart, 15 min): 25%
- % 13C isotopic enrichment in tissue ([3]; Heart, 30 min): 33%
- % 13C isotopic enrichment in tissue ([3]; Kidney, 15 min): 19%
- % 13C isotopic enrichment in tissue ([3]; Kidney, 30 min): 17%
- % 13C isotopic enrichment in tissue ([3]; Liver, 15 min): 11%
- % 13C isotopic enrichment in tissue ([3]; Liver, 30 min): 13%
- % 13C isotopic enrichment in tissue ([3]; Lung N, 15 min): 20%
- % 13C isotopic enrichment in tissue ([3]; Lung N, 30 min): 17%
- % 13C isotopic enrichment in tissue ([3]; Thigh muscle, 15 min): 17%
- % 13C isotopic enrichment in tissue ([3]; Thigh muscle, 30 min): 11%
- metabolite content of lung tissue ([4]; patient #6 (sqC, grade II), cancer tissue): 29.55 μmole/g dry weight
- metabolite content of lung tissue ([4]; patient #6 (sqC, grade II), normal tissue): 2.66 μmole/g dry weight
- metabolite content of lung tissue ([4]; patient #7 (adenoC, grade II), cancer tissue): 10.62 μmole/g dry weight
- metabolite content of lung tissue ([4]; patient #7 (adenoC, grade II), normal tissue): 11.80 μmole/g dry weight
- metabolite content of lung tissue ([4]; patient #8 (sqC, grade II-III), cancer tissue): 17.72 μmole/g dry weight
- metabolite content of lung tissue ([4]; patient #8 (sqC, grade II-III), normal tissue): 9.44 μmole/g dry weight
- metabolite content of lung tissue ([4]; patient #9 (sqC, grade II), cancer tissue): 25.31 μmole/g dry weight
- metabolite content of lung tissue ([4]; patient #9 (sqC, grade II), normal tissue): 19.52 μmole/g dry weight
- metabolite content of lung tissue ([4]; patient #10 (sqC, grade III), cancer tissue): 29.67 μmole/g dry weight
- metabolite content of lung tissue ([4]; patient #10 (sqC, grade III), normal tissue): 8.27 μmole/g dry weight

SMILES: C#Cc1cccc(Nc2ncnc3cc(OCCOC)c(OCCOC)cc23)c1 [Erlotinib]
- response of lesion ([5]; lower lobe (LL) lesion): responded
- response of lesion ([5]; upper lobe (UL) lesion): did not

- % 13C enrichment of metabolite in lung tissue [6]: 15.5%
- apparent half-life in plasma ([2]; mouse, in vivo): 16 to 22 min
- initial % 13C enrichment in plasma ([2]; mouse, in vivo): 65%
SMILES: O[13CH2][13C@H]1O[13CH](O)[13C@H](O)[13C@@H](O)[13C@@H]1O (stereo partly shown) [[U-^13C]-Glucose, uniformly ^13C labeled glucose, reference compound]
